Test results reported in US20230085307A1, “PYRIDAZINONE COMPOUND AND HERBICIDE” (NISSAN CHEMICAL CORPORATION, priority 2019, published 2023).

Tests used:
[1] = system: southern crabgrass; experiment: Test Example 4: herbicidal effect by soil treatment (Table 19, symbol F); format: in vivo, southern crabgrass (Digitaria ciliaris); settings: amount of applied herbicide 320 g/ha
Summary of the method: (§1)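 Scoring uses the grading scale of an earlier test, three weeks post-application. Treatment consists of spraying a diluted emulsion formulation across the surface of sterilized diluvial soil in which seeds are buried near 1.5 cm deep; boxes are kept in a greenhouse between 25° C. and 30° C.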

[2] = system: persian speedwell; experiment: Test Example 5: herbicidal effect by foliage application, plastic box (Table 20, symbol R); format: in vivo, Persian speedwell (Veronica persica); settings: foliage application, 320 g/ha, evaluated three weeks after application
Summary of the method: (§2)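 Post-emergence foliar test in sterilized diluvial soil. Compound applied as water-diluted emulsion at a predetermined rate to 14-day-old plants; evaluation at three weeks.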

[3] = system: windgrass; experiment: Test Example 5: herbicidal effect by foliage application, plastic box (Table 20, symbol L); format: in vivo, windgrass (Apera spica-venti); settings: foliage application, 320 g/ha, evaluated three weeks after application
Summary of the method: as §2

[4] = system: soybean; experiment: Test Example 4: effect on crop by soil treatment (Table 19, symbol d); format: in vivo; settings: amount of applied herbicide 320 g/ha
From the text: (§3) [Test Example 4] Herbicidal Effect Test by Soil Treatment
(§4) Sterilized diluvial soil was placed in a plastic box having a length of 21 cm, a width of 13 cm, and a depth of 7 cm. The seeds of each of southern crabgrass, green foxtail, barnyard grass, wild oat, blackgrass, Italian ryegrass, windgrass, velvetleaf, redroot pigweed, lambsquarters, chickweed, false cleavers, persian speedwell, corn, soybean, rice, wheat, beet, and rapeseed were sowed in a spot-like manner and covered with the soil having a thickness of about 1.5 cm. Subsequently, the emulsion agent of the compound of the present invention prepared according to Formulation Example 2 was diluted with water so as to achieve a predetermined herbicide amount, and the diluted emulsion agent was uniformly applied to the surface of the soil with a small-sized spray. The plastic box was placed in a greenhouse at 25° C. to 30° C. for growth of the plants. Three weeks after the herbicide application, the effect of the herbicide on each plant was evaluated according to the criteria of Test Example 1.

[5] = system: wheat; experiment: Test Example 5: effect on crop by foliage application, plastic box (Table 20, symbol e); format: in vivo; settings: 320 g/ha, evaluated three weeks after application
From the text: (§5) [Test Example 5] Herbicidal Effect Test by Foliage Application
as §4, with “Thereafter, the plants were grown in a greenhouse at 25° C. to 30° C. After 14-day growth of the plants,” for “Subsequently,”, “a foliage part” for “the surface of the soil”, “spray.” for “spray. The plastic box was placed in a greenhouse at 25° C. to 30° C. for growth of the plants.”

[6] = system: corn; experiment: Test Example 4: effect on crop by soil treatment (Table 19, symbol c); format: in vivo; settings: amount of applied herbicide 320 g/ha
From the text: as §3, §4

[7] = system: redroot pigweed; experiment: Test Example 4: herbicidal effect by soil treatment (Table 19, symbol N); format: in vivo, redroot pigweed (Amaranthus retroflexus); settings: amount of applied herbicide 320 g/ha
Summary of the method: as §1

[8] = system: blackgrass; experiment: Test Example 5: herbicidal effect by foliage application, plastic box (Table 20, symbol J); format: in vivo, blackgrass (Alopecurus myosuroides); settings: foliage application, 320 g/ha, evaluated three weeks after application
Summary of the method: as §2

[9] = system: barnyard grass; experiment: Test Example 5: herbicidal effect by foliage application, plastic box (Table 20, symbol H); format: in vivo, barnyard grass (Echinochloa crus-galli); settings: foliage application, 320 g/ha, evaluated three weeks after application
Summary of the method: as §2

[10] = system: wild oat; experiment: Test Example 4: herbicidal effect by soil treatment (Table 19, symbol I); format: in vivo, wild oat (Avena fatua); settings: amount of applied herbicide 320 g/ha
Summary of the method: as §1

[11] = system: wild oat; experiment: Test Example 5: herbicidal effect by foliage application, plastic box (Table 20, symbol I); format: in vivo, wild oat (Avena fatua); settings: foliage application, 320 g/ha, evaluated three weeks after application
Summary of the method: as §2

[12] = system: beet; experiment: Test Example 5: effect on crop by foliage application, plastic box (Table 20, symbol f); format: in vivo; settings: 320 g/ha, evaluated three weeks after application
From the text: as §5
as §4, with “Thereafter, the plants were grown in a greenhouse at 25° C. to 30° C. After 14-day growth of the plants,” for “Subsequently,”, “a foliage part” for “the surface of the soil”, “spray.” for “spray. The plastic box was placed in a greenhouse at 25° C. to 30° C. for growth of the plants.”

[13] = system: blackgrass; experiment: Test Example 4: herbicidal effect by soil treatment (Table 19, symbol J); format: in vivo, blackgrass (Alopecurus myosuroides); settings: amount of applied herbicide 320 g/ha
Summary of the method: as §1

[14] = system: green foxtail; experiment: Test Example 5: herbicidal effect by foliage application, plastic box (Table 20, symbol G); format: in vivo, green foxtail (Setaria viridis); settings: foliage application, 320 g/ha, evaluated three weeks after application
Summary of the method: as §2

[15] = system: rice flat sedge; experiment: Test Example 3: herbicidal effect by foliage application, Wagner pot (Table 18, symbol E); format: in vivo, rice flat sedge (Cyperus iria); settings: amount of applied herbicide 320 g/ha
Summary of the method: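 Plants were sown in alluvial soil held under 0.1–0.5 cm standing water and grown 14 days in a greenhouse at 25–30 °C. An emulsifiable formulation, water-diluted to the set dose, was then sprayed onto the foliage, and effects were scored three weeks later using previously defined criteria.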

[16] = system: beet; experiment: Test Example 4: effect on crop by soil treatment (Table 19, symbol f); format: in vivo; settings: amount of applied herbicide 320 g/ha
From the text: as §3, §4

[17] = system: windgrass; experiment: Test Example 4: herbicidal effect by soil treatment (Table 19, symbol L); format: in vivo, windgrass (Apera spica-venti); settings: amount of applied herbicide 320 g/ha
Summary of the method: as §1

[18] = system: rapeseed; experiment: Test Example 4: effect on crop by soil treatment (Table 19, symbol g); format: in vivo; settings: amount of applied herbicide 320 g/ha
From the text: as §3, §4

[19] = system: lambsquarters; experiment: Test Example 4: herbicidal effect by soil treatment (Table 19, symbol O); format: in vivo, lambsquarters (Chenopodium album); settings: amount of applied herbicide 320 g/ha
Summary of the method: as §1

COc1ccccc1-c1sc2ccc(C3CC3)cc2c1-c1c(O)c(C)nn(C)c1=O [Compound No. 2-160, 4-(5-cyclopropyl-2-(2-methoxyphenyl)benzo[b]thiophen-3-yl)-5-hydroxy-2,6-dimethylpyridazin-3(2H)-one]
F: southern crabgrass, herbicidal effect rating [1]: 0 (Herbicidal rate of 5% or less (almost no effect)) | herbicidal effect on R: persian speedwell (criteria 0-5) [2]: 5 (Herbicidal rate of 90% or more (almost completely withered)) | herbicidal effect on L: windgrass (criteria 0-5) [3]: 5 (Herbicidal rate of 90% or more (almost completely withered)) | d: soybean, effect on crop rating [4]: 0 (Herbicidal rate of 5% or less (almost no effect)) | effect on crop e: wheat (criteria 0-5) [5]: 1 (Herbicidal rate of 5% or more and less than 20%) | c: corn, effect on crop rating [6]: 0 (Herbicidal rate of 5% or less (almost no effect)) | N: redroot pigweed, herbicidal effect rating [7]: 0 (Herbicidal rate of 5% or less (almost no effect)) | herbicidal effect on J: blackgrass (criteria 0-5) [8]: 4 (Herbicidal rate of 70% or more and less than 90%) | herbicidal effect on H: barnyard grass (criteria 0-5) [9]: 4 (Herbicidal rate of 70% or more and less than 90%) | I: wild oat, herbicidal effect rating [10]: 0 (Herbicidal rate of 5% or less (almost no effect)) | herbicidal effect on I: wild oat (criteria 0-5) [11]: 0 (Herbicidal rate of 5% or less (almost no effect)) | effect on crop f: beet (criteria 0-5) [12]: 5 (Herbicidal rate of 90% or more (almost completely withered)) | J: blackgrass, herbicidal effect rating [13]: 0 (Herbicidal rate of 5% or less (almost no effect)) | herbicidal effect on G: green foxtail (criteria 0-5) [14]: 4 (Herbicidal rate of 70% or more and less than 90%) | herbicidal effect on E: rice flat sedge [15]: 3 (Herbicidal rate of 40% or more and less than 70%) | f: beet, effect on crop rating [16]: 0 (Herbicidal rate of 5% or less (almost no effect)) | L: windgrass, herbicidal effect rating [17]: 3 (Herbicidal rate of 40% or more and less than 70%) | g: rapeseed, effect on crop rating [18]: 1 (Herbicidal rate of 5% or more and less than 20%) | O: lambsquarters, herbicidal effect rating [19]: 0 (Herbicidal rate of 5% or less (almost no effect))
